US8012975B2, “Antitumoral analogs of ET-743” (Pharma Mar, S.A., priority 2000, dated 2011)

Columns and labels:
P-388 = test: Cytotoxic activity IC50, P-388; settings: Mus musculus, P388, read-out: CYTOTOXIC ACTIVITIY IC50 (μM) P-388
DU-145 = test: Cytotoxic activity IC50, DU-145; settings: Homo sapiens, DU-145, read-out: CYTOTOXIC ACTIVITIY IC50 (μM) DU-145, DU-145
MEL-28 = test: Cytotoxic activity IC50, MEL-28; settings: Homo sapiens, SK-MEL-28, read-out: CYTOTOXIC ACTIVITIY IC50 (μM) MEL-28, MEL-28
HT-29 = test: Cytotoxic activity IC50, HT-29; settings: Homo sapiens, HT-29, read-out: CYTOTOXIC ACTIVITIY IC50 (μM) HT-29, HT-29
A-549 = test: Cytotoxic activity IC50, A-549; settings: Homo sapiens, A549, read-out: CYTOTOXIC ACTIVITIY IC50 (μM) A-549, A-549

SMILES | IC50 (P-388) [µM] | IC50 (DU-145) [µM] | IC50 (MEL-28) [µM] | IC50 (HT-29) [µM] | IC50 (A-549) [µM]
COCOc1c(OC)c(C)cc2c1[C@@H]1C3Cc4c(OC(=O)CCCl)c(C)c5c(c4[C@H](CNC(=O)CCc4ccccc4)N3[C@@H](C#N)[C@H](C2)N1C)OCO5 (some centres unmarked) | 0.05 | 0.05 | 0.05 | 0.05 | 0.05
COCOc1c(OC)c(C)cc2c1[C@@H]1C3Cc4c(OC(=O)CCl)c(C)c5c(c4[C@H](CNC(=O)CCc4ccccc4)N3[C@@H](C#N)[C@H](C2)N1C)OCO5 (some centres unmarked) | 0.1 | 0.1 | 0.1 | 0.1 | 0.1
COCOc1c(OC)c(C)cc2c1[C@@H]1C3Cc4c(O)c(C)c5c(c4[C@H](COC(=O)CCc4ccccc4)N3[C@@H](C#N)[C@H](C2)N1C)OCO5 (some centres unmarked) | 0.1 | 0.1 | 0.1 | 0.1 | 0.1
COc1c(C)cc2c(c1O)[C@@H]1C3Cc4c(OC(C)=O)c(C)c5c(c4[C@H](CNC(=O)CC(C)C)N3[C@@H](O)[C@H](C2)N1C)OCO5 (some centres unmarked) | 0.0008 | 0.001 | 0.0008 | 0.0008 | 0.001
C=CCOC(=O)Oc1c(C)c2c(c3c1CC1[C@H]4c5c(cc(C)c(OC)c5OCOC)C[C@@H]([C@H](C#N)N1[C@H]3CNC(=O)OCC(Cl)(Cl)Cl)N4C)OCO2 (some centres unmarked) | 0.1 | 0.1 | 0.1 | 0.1 | 0.1
COCOc1c(OC)c(C)cc2c1[C@@H]1C3Cc4c(O)c(C)c5c(c4[C@H](CNC(=O)CCc4ccccc4)N3[C@@H](C#N)[C@H](C2)N1C)OCO5 (some centres unmarked) | 0.1 | 0.1 | 0.1 | 0.1 | 0.1
C=CCOC(=O)Oc1c(C)c2c(c3c1CC1[C@H]4c5c(cc(C)c(OC)c5OCOC)C[C@@H]([C@H](O)N1[C@H]3CNC(=O)CCc1ccccc1)N4C)OCO2 (some centres unmarked) | 0.1 | 0.1 | 0.1 | 0.1 | 0.1
C=CCOc1c(C)c2c(c3c1CC1[C@H]4c5c(cc(C)c(OC)c5OCOC)C[C@@H]([C@H](C#N)N1[C@H]3COC(=O)CCC)N4C)OCO2 (some centres unmarked) | > 1 | > 1 | > 1 | > 1 | > 1
COc1c(C)cc2c(c1OC(C)=O)[C@@H]1C3Cc4c(OC(C)=O)c(C)c5c(c4[C@H](CNC(=O)[C@@H](C)NC(=O)C(F)(F)F)N3[C@@H](C#N)[C@H](C2)N1C)OCO5 (some centres unmarked) | – | – | – | 0.013 | 0.013
COc1c(C)cc2c(c1O)[C@@H]1C3Cc4c(OC(C)=O)c(C)c5c(c4[C@H](CNC(=O)CCC4CCCCC4)N3[C@@H](C#N)[C@H](C2)N1C)OCO5 (some centres unmarked) | – | – | – | – | 0.0015
COc1c(C)cc2c(c1OC(=O)CCC1CCCCC1)[C@@H]1C3Cc4c(OC(C)=O)c(C)c5c(c4[C@H](CNC(=O)CCC4CCCCC4)N3[C@@H](C#N)[C@H](C2)N1C)OCO5 (some centres unmarked) | – | – | – | – | 0.12
COCOc1c(OC)c(C)cc2c1[C@@H]1C3Cc4c(O)c(C)c5c(c4[C@H](COC(=O)/C=C/c4cccc(C(F)(F)F)c4)N3[C@@H](C#N)[C@H](C2)N1C)OCO5 (some centres unmarked) | 0.1 | 0.1 | 0.1 | 0.1 | 0.1
COc1c(C)cc2c(c1O)[C@@H]1C3Cc4c(OC(C)=O)c(C)c5c(c4[C@H](CNC(=O)[C@H](C)NC(=O)Cc4ccccc4)N3[C@@H](O)[C@H](C2)N1C)OCO5 (some centres unmarked) [drawing 137] | 0.0007 | 0.0007 | 0.0007 | 0.0007 | 0.0007
CCC(=O)N[C@@H](C)C(=O)NC[C@H]1c2c(c(OC(C)=O)c(C)c3c2OCO3)CC2[C@H]3c4c(cc(C)c(OC)c4O)C[C@@H]([C@H](C#N)N21)N3C (some centres unmarked) | 0.0007 | 0.0007 | 0.0007 | 0.0007 | 0.0007
COc1c(C)cc2c(c1OC(=O)CC1CCCCC1)[C@@H]1C3Cc4c(OC(C)=O)c(C)c5c(c4[C@H](CNC(=O)CC4CCCCC4)N3[C@@H](C#N)[C@H](C2)N1C)OCO5 (some centres unmarked) | – | – | – | – | 0.013
COc1c(C)cc2c(c1O)[C@@H]1C3Cc4c(OC(C)=O)c(C)c5c(c4[C@H](CNC(=O)[C@H](C)NC(=O)CCc4ccccc4)N3[C@@H](C#N)[C@H](C2)N1C)OCO5 (some centres unmarked) | 0.0006 | 0.0006 | 0.001 | 0.0006 | 0.001
C=CCOc1c(C)c2c(c3c1CC1[C@H]4c5c(cc(C)c(OC)c5O)C[C@@H]([C@H](C#N)N1[C@H]3COC(=O)/C=C/c1ccccc1)N4C)OCO2 (some centres unmarked) | – | – | – | 0.0015 | 0.0015
CCCCCC(=O)Oc1c(OC)c(C)cc2c1[C@@H]1C3Cc4c(OC(C)=O)c(C)c5c(c4[C@H](CNC(=O)CCc4ccccc4)N3[C@@H](C#N)[C@H](C2)N1C)OCO5 (some centres unmarked) | – | – | – | 0.013 | 0.013
COc1c(C)cc2c(c1O)[C@@H]1C3Cc4c(OC(C)=O)c(C)c5c(c4[C@H](CNC(=O)c4cccnc4Cl)N3[C@@H](O)[C@H](C2)N1C)OCO5 (some centres unmarked) | – | – | – | – | 0.00015
C=CCOC1C(C)=C2OCOC2=C2C1CC1[C@H]3c4c(cc(C)c(OC)c4OCOC)C[C@@H]([C@H](C#N)N1[C@H]2COC(=O)/C(=C/SCC1c2ccccc2-c2ccccc21)OCOC)N3C (some centres unmarked) | – | – | – | 0.056 | 0.056

SMILES | IC50 (P-388) [µM] | IC50 (DU-145) [µM] | IC50 (MEL-28) [µM] | IC50 (HT-29) [µM] | IC50 (A-549) [µM]
C=CCNC[C@H]1c2c(c(OC(C)=O)c(C)c3c2OCO3)CC2[C@H]3c4c(cc(C)c(OC)c4O)C[C@@H]([C@H](C#N)N21)N3C (some centres unmarked) | – | – | – | 0.0018 | 0.0018
COc1c(C)cc2c(c1O)[C@@H]1C3Cc4c(OC(C)=O)c(C)c5c(c4[C@H](CNC(=O)[C@@H]4CCCN4C(=O)OC(C)(C)C)N3[C@@H](C#N)[C@H](C2)N1C)OCO5 (some centres unmarked) | – | – | – | 0.014 | 0.014
COCOc1c(OC)c(C)cc2c1[C@@H]1C3CC4C(=O)C(C)=C5OCOC5=C4[C@H](COC(=O)/C(CSCC4c5ccccc5-c5ccccc54)=N/OC)N3[C@@H](C#N)[C@H](C2)N1C (some centres unmarked) | – | – | – | > 1 | > 1
CCCCCC(=O)Oc1c(OC)c(C)cc2c1[C@@H]1C3Cc4c(OC(C)=O)c(C)c5c(c4[C@H](CNC(=O)[C@H](C)NC(=O)C(F)(F)F)N3[C@@H](C#N)[C@H](C2)N1C)OCO5 (some centres unmarked) | – | – | – | 0.012 | 0.012
COc1c(C)cc2c(c1O)[C@@H]1C3Cc4c(OC(C)=O)c(C)c5c(c4[C@H](CNC(=O)[C@@H](NC(=O)OC(C)(C)C)C(C)C)N3[C@@H](C#N)[C@H](C2)N1C)OCO5 (some centres unmarked) | – | – | – | 0.007 | 0.007
CCCCCC(=O)Oc1c(OC)c(C)cc2c1[C@@H]1C3Cc4c(OC(C)=O)c(C)c5c(c4[C@H](CNC(=O)C(C)NC(=O)CCc4ccccc4)N3[C@@H](C#N)[C@H](C2)N1C)OCO5 (some centres unmarked) | – | – | – | 0.06 | 0.06
CCCC(=O)Oc1c(OC)c(C)cc2c1[C@@H]1C3Cc4c(OC(C)=O)c(C)c5c(c4[C@H](CNC(=O)C(C)NC(=O)CCc4ccccc4)N3[C@@H](C#N)[C@H](C2)N1C)OCO5 (some centres unmarked) | – | – | – | 0.012 | 0.012
COc1c(C)cc2c(c1O)[C@@H]1C3Cc4c(OC(C)=O)c(C)c5c(c4[C@H](CNC(=O)[C@H](Cc4c[nH]c6ccccc46)NC(=O)OC(C)(C)C)N3[C@@H](O)[C@H](C2)N1C)OCO5 (some centres unmarked) | – | – | – | – | 0.012
CCCC(=O)Oc1c(OC)c(C)cc2c1[C@@H]1C3Cc4c(OC(C)=O)c(C)c5c(c4[C@H](CNC(=O)CCc4ccccc4)N3[C@@H](C#N)[C@H](C2)N1C)OCO5 (some centres unmarked) | – | – | – | 0.0014 | 0.0014
CCCC(=O)Oc1c(OC)c(C)cc2c1[C@@H]1C3Cc4c(OC(C)=O)c(C)c5c(c4[C@H](CN(C(=O)CCC)C(=O)[C@H](C)N(C(=O)CCC)C(=O)C(F)(F)F)N3[C@@H](C#N)[C@H](C2)N1C)OCO5 (some centres unmarked) | – | – | – | 0.11 | 0.11
COC1=C(C)C(=O)C2=C(C1=O)[C@H](CNC(C)=O)N1C(C2)[C@H]2c3c(cc(C)c(OC)c3O)C[C@@H]([C@@H]1C#N)N2C (some centres unmarked) | 0.005 | – | 0.005 | 0.005 | 0.005
COc1c(C)cc2c(c1O)[C@@H]1C3Cc4c(OC(C)=O)c(C)c5c(c4[C@H](CNC(=O)[C@H](Cc4ccccc4)NC(=O)OC(C)(C)C)N3[C@@H](C#N)[C@H](C2)N1C)OCO5 (some centres unmarked) | – | – | – | 0.0013 | 0.0013
COCOc1c(OC)c(C)cc2c1[C@@H]1C3Cc4c(OC(C)=O)c(C)c5c(c4[C@H](COC(=O)/C=C/c4ccccc4)N3[C@@H](C#N)[C@H](C2)N1C)OCO5 (some centres unmarked) | 0.01 | – | – | – | –
COc1c(C)cc2c(c1O)[C@@H]1C3Cc4c(OC(C)=O)c(C)c5c(c4[C@H](CNC(=O)[C@H](Cc4c[nH]c6ccccc46)NC(=O)OC(C)(C)C)N3[C@@H](C#N)[C@H](C2)N1C)OCO5 (some centres unmarked) | – | – | – | 0.00012 | 0.00012
COc1c(C)cc2c(c1OC(C)=O)[C@@H]1C3Cc4c(OC(C)=O)c(C)c5c(c4[C@H](CNC(=O)[C@@H](C)N(C(C)=O)C(=O)C(F)(F)F)N3[C@@H](C#N)[C@H](C2)N1C)OCO5 (some centres unmarked) | – | – | – | 0.12 | 0.12
COc1c(C)cc2c(c1O)[C@@H]1C3[C@@H]4SCC(=O)C(=O)OC[C@@H](c5c6c(c(C)c(OC(C)=O)c54)OCO6)N3[C@@H](C#N)[C@H](C2)N1C (some centres unmarked) | 0.1 | – | 0.1 | 0.1 | 0.1
COc1c(C)cc2c(c1O)[C@@H]1C3Cc4c(OC(C)=O)c(C)c5c(c4[C@H](CNC(=O)CC4CCCCC4)N3[C@@H](C#N)[C@H](C2)N1C)OCO5 (some centres unmarked) | – | – | – | – | 0.0015
COc1c(C)cc2c(c1O)[C@@H]1C3Cc4c(OC(C)=O)c(C)c5c(c4[C@H](CNC(=O)c4cccnc4Cl)N3[C@@H](C#N)[C@H](C2)N1C)OCO5 (some centres unmarked) | – | – | – | – | 0.00015
CCCC(=O)Oc1c(OC)c(C)cc2c1[C@@H]1C3Cc4c(OC(C)=O)c(C)c5c(c4[C@H](CNC(=O)[C@H](C)NC(=O)C(F)(F)F)N3[C@@H](C#N)[C@H](C2)N1C)OCO5 (some centres unmarked) | – | – | – | 0.13 | 0.13
